Laboratory results taken from patent US9139557B2, “Carboxamide compounds and their use as calpain inhibitors” (Abbott GmbH & Co. KG, priority 2006, dated 2015).

Legend:
Type in all cases: biochemical
[1] = target: T1, cathepsin B (Homo sapiens, UniProt P07858); assay: Cathepsin B enzyme inhibition in vitro (kinetic fluorescence assay); settings: Ki(cathepsin B)/Ki(calpain) ratio
T1 construct: cathepsin B—isolated from human liver; purchased Calbiochem 219362; host or cells: human liver (tissue isolate)
Method in brief: (§1)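 Kinetic fluorescence (ex 390/em 460 nm), RT. Calpain-I: 20 nM erythrocyte-derived, 100 μM Suc-Leu-Tyr-AMC, imidazole/CaCl2, pH 7.3. Cathepsins, pH 6.0 MES/EDTA/cysteine: B 0.25 nM liver, 100 μM Z-Phe-Arg-AMC; L 1 nM liver, 2 μM Z-Phe-Arg-AMC; S 0.5 nM recombinant, 20 μM Z-Val-Val-Arg-AMC. Cheng-Prusoff Ki, mean of 2–4 curves.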

[2] = target: T2, cathepsin K (Homo sapiens, UniProt P43235); assay: Cathepsin K enzyme inhibition in vitro (kinetic fluorescence assay); settings: Ki(cathepsin K)/Ki(calpain) ratio
T2 construct: purchased Calbiochem 342001; host or cells: E. coli
T2 sequence (P43235 115-329): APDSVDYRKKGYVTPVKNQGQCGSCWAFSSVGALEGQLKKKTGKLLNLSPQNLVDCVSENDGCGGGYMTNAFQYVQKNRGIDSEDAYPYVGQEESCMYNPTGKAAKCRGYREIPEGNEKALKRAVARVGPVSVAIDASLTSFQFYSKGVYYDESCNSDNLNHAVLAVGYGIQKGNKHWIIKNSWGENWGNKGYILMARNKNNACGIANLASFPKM

[3] = target: T3, cathepsin L (Homo sapiens, UniProt P07711); assay: Cathepsin L enzyme inhibition in vitro (kinetic fluorescence assay); settings: Ki(cathepsin L)/Ki(calpain) ratio
T3 construct: cathepsin L—isolated from human liver; purchased Calbiochem 219402; host or cells: human liver (tissue isolate)
Method in brief: as §1

[4] = target: T4, cathepsin S (Homo sapiens, UniProt P25774); assay: Cathepsin S enzyme inhibition in vitro (kinetic fluorescence assay); settings: Ki(cathepsin S)/Ki(calpain) ratio
T4 construct: purchased Calbiochem 219343; host or cells: E. coli
Method in brief: as §1

T4 sequence (P25774 115-331): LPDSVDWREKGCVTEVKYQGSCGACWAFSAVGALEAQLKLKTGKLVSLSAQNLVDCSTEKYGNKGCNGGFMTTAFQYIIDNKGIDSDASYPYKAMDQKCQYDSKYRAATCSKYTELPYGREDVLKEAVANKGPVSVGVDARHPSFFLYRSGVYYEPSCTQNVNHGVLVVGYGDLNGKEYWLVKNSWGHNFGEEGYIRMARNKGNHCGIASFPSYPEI
T3 sequence (P07711 114-333): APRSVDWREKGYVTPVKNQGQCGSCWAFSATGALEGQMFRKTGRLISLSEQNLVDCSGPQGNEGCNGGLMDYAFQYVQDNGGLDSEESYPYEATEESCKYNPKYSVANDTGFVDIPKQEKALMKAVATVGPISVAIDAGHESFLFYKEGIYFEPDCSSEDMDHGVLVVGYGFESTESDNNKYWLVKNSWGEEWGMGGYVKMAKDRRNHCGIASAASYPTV

`Cc1ccccc1-c1ccn(-c2ncccc2C(=O)NC(Cc2ccccc2)C(=O)C(N)=O)n1` (stereo not drawn) [Example 93, N-[3-Amino-2,3-dioxo-1-(phenylmethyl)propyl]-2-[3-(2-methylphenyl)-1H-pyrazol-1-yl]pyridine-3-carboxamide] was tested. Which “Sel cat. B” value [1] did it give?
Its value is “++ (++ means a Ki(cathepsin B)/Ki(calpain) ratio of ≧30)”.

And the “Sel cat. K” value [2]?
Its value is “+ (+ means 10≦Ki(cathepsin K)/Ki(calpain)<30)”.

What about the “Sel cat. L” value [3] of the same compound?
Its value is “++ (++ means a Ki(cathepsin L)/Ki(calpain) ratio of ≧50)”.

And the “Sel cat. S” value [4]?
The value was “++ (++ means a Ki(cathepsin S)/Ki(calpain) ratio of ≧100)”.

What does the source list for `NC(=O)C(=O)C(Cc1ccccc1)NC(=O)c1cccnc1-n1ccc(-c2cccc3cccnc23)n1` (stereo not drawn) [Example 160, N-[3-amino-2,3-dioxo-1-(phenylmethyl)propyl]-2-(3-quinolin-8-yl-1H-pyrazol-1-yl)pyridine-3-carboxamide]?
Sel cat. B [1]: ++ (++ means a Ki(cathepsin B)/Ki(calpain) ratio of ≧30); Sel cat. K [2]: ++ (++ means a Ki(cathepsin K)/Ki(calpain) ratio of ≧30); Sel cat. L [3]: ++ (++ means a Ki(cathepsin L)/Ki(calpain) ratio of ≧50); Sel cat. S [4]: ++ (++ means a Ki(cathepsin S)/Ki(calpain) ratio of ≧100)

With `COc1ccc(-c2ccn(-c3ncccc3C(=O)NC(Cc3ccccc3)C(=O)C(N)=O)n2)cc1` (stereo not drawn) [Example 48, N-(3-Amino-1-benzyl-2,3-dioxopropyl)-2-[3-(4-methoxyphenyl)-1H-pyrazol-1-yl]nicotinamide] as the compound, how does the “Sel cat. B” value [1] read?
Its value is “+ (+ means 10≦Ki(cathepsin B)/Ki(calpain)<30)”.

What about the “Sel cat. K” value [2] of the same compound?
The value was “+ (+ means 10≦Ki(cathepsin K)/Ki(calpain)<30)”.

What about the “Sel cat. L” value [3] of the same compound?
Its value is “++ (++ means a Ki(cathepsin L)/Ki(calpain) ratio of ≧50)”.

What about the “Sel cat. S” value [4] of the same compound?
The value was “++ (++ means a Ki(cathepsin S)/Ki(calpain) ratio of ≧100)”.

With `NC(=O)C(=O)C(Cc1ccccc1)NC(=O)c1cccnc1-n1cc2c(n1)-c1ccccc1SC2` (stereo not drawn) [Example 173, N-[3-Amino-2,3-dioxo-1-(phenylmethyl)propyl]-2-thiochromeno[4,3-c]pyrazol-2(4H)-ylpyridine-3-carboxamide] as the compound, how does the “Sel cat. B” value [1] read?
The value was “+ (+ means 10≦Ki(cathepsin B)/Ki(calpain)<30)”.

What about the “Sel cat. K” value [2] of the same compound?
Its value is “+ (+ means 10≦Ki(cathepsin K)/Ki(calpain)<30)”.

What about the “Sel cat. L” value [3] of the same compound?
The value was “++ (++ means a Ki(cathepsin L)/Ki(calpain) ratio of ≧50)”.

And the “Sel cat. S” value [4]?
Its value is “++ (++ means a Ki(cathepsin S)/Ki(calpain) ratio of ≧100)”.

Which results are given for `COc1cc(F)ccc1-c1ccn(-c2ncccc2C(=O)NC(Cc2ccccc2)C(=O)C(N)=O)n1` (stereo not drawn) [Example 125, N-[3-Amino-2,3-dioxo-1-(phenylmethyl)propyl]-2-{3-[4-fluoro-2-(methyloxy)phenyl]-1H-pyrazol-1-yl}pyridine-3-carboxamide]?
Sel cat. B [1]: ++ (++ means a Ki(cathepsin B)/Ki(calpain) ratio of ≧30); Sel cat. K [2]: ++ (++ means a Ki(cathepsin K)/Ki(calpain) ratio of ≧30); Sel cat. L [3]: ++ (++ means a Ki(cathepsin L)/Ki(calpain) ratio of ≧50); Sel cat. S [4]: ++ (++ means a Ki(cathepsin S)/Ki(calpain) ratio of ≧100)

For `COc1cc(Cl)ccc1-c1ccn(-c2ncccc2C(=O)NC(Cc2ccccc2)C(=O)C(N)=O)n1` (stereo not drawn) [Example 139, N-[3-Amino-2,3-dioxo-1-(phenylmethyl)propyl]-2-{3-[4-chloro-2-(methyloxy)phenyl]-1H-pyrazol-1-yl}pyridine-3-carboxamide], which “Sel cat. B” value [1] is on record?
The value was “+ (+ means 10≦Ki(cathepsin B)/Ki(calpain)<30)”.

What about the “Sel cat. K” value [2] of the same compound?
Its value is “++ (++ means a Ki(cathepsin K)/Ki(calpain) ratio of ≧30)”.

And the “Sel cat. L” value [3]?
The value was “++ (++ means a Ki(cathepsin L)/Ki(calpain) ratio of ≧50)”.

And the “Sel cat. S” value [4]?
Its value is “++ (++ means a Ki(cathepsin S)/Ki(calpain) ratio of ≧100)”.
